Results from US9000125B2, “Approach to treat intraocular hypertension” (priority 2006, dated 2015).
No end group written: not given here.

Test system: intraocular pressure (IOP) of the rabbit eye
Test: IOP (TonoPen) in anaesthetized normal NZW rabbits after deposition/injection beneath the Tenon's capsule
Conditions: Example 9; 50 or 100 μg below the Tenon's capsule

## CHSKTR [CHSKTR]
  local or systemic side effects: without inducing any local or systemic side effects
